# Assay results published in ChEMBL document CHEMBL1201862, “PubChem BioAssay data set” (2004).
# Activity calls are given as the source filed them.
# What was measured:
# Kallikrein-7 = Kallikrein-7 (Homo sapiens, UniProt P49862); experiment: Fluorescence Intensity-based biochemical primary high throughput dose response assay to identify activators of kallikrein-7 (K7) zymogen.
# [1] = EDANS-DABCYL fluorescence interference, concentration series, dose response, artefact control for kallikrein-7 zymogen activator project, biochemical, fluorescence intensity, triplicate (AID 720493)
# [2] = molecular target: T1, Calpain-2 catalytic subunit (Sus scrofa, UniProt P43367); experiment: pig calpain II inhibitor potency, dose response, biochemical, fluorogenic peptide substrate (AID 1420); assay type: functional
# T1 sequence (P43367 whole entry): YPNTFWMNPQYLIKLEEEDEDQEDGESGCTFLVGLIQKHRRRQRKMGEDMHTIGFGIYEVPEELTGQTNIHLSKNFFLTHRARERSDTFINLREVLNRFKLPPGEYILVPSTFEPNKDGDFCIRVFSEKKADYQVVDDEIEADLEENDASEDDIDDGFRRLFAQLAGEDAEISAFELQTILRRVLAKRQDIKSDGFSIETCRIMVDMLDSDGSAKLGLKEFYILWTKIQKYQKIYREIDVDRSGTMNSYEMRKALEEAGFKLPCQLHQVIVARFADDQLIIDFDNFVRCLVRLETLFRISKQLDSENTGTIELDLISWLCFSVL
# [3] = cytotoxicity in A549 cells, dose response, cytotoxicity control, cell-based, CellTiter-Glo luminescence, cherry-pick (AID 743484); assay type: functional
# [4] = cytotoxicity in HepG2 cells, dose response, cytotoxicity control, cell-based, CellTiter-Glo luminescence, cherry-pick, set 4 (AID 743480); assay type: functional
# [5] = HEK293T cell cytotoxicity, dose response, cytotoxicity control, CellTiter-Glo luminescence, cherry-picked samples, set 4 (AID 743441); assay type: functional, cell-based; conditions: HEK293
# Jurkat = experiment: antigen receptor-induced NF-kB inhibitors, dose response, Jurkat, luciferase reporter, luminescence, B- and T-cell (AID 489004); assay type: functional, cell-based; conditions: Homo sapiens;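 further: NF-kB luciferase reporter Jurkat cells stimulated with PMA plus ionomycin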
# [6] = cytotoxicity in HEK-293T NF-kB-Luc cells, dose response, cytotoxicity control for B/T-cell NF-kB inhibitor project, cell-based, uHTS hits (AID 489019); assay type: functional;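 further: IC50 reflects cytotoxicity as loss of cell viability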
# [7] = inhibitors of HIV Env-driven cell fusion, dose response, cherry-pick (AID 652057); assay type: functional, cell-based
# Galanin receptor type 3 = Galanin receptor type 3 (Homo sapiens, UniProt O60755); experiment: Fluorescence-based cell-based primary high throughput dose response assay to identify antagonists of the Galanin Receptor 3 (GalR3).; assay type: functional
# cells [8] = assay type: functional, cell-based; conditions: HEK-CNG
# [9] = ZM109 Env clade C HIV-1 fusion inhibitors, dose response, HeLa effector, CEM target cells, luciferase, cherry-pick (AID 652058); assay type: functional, cell-based
# [10] = off-target signal loss in HeLa-CEM21 co-culture – HeLa F-luc CTL cells, cherry-picked, counter-screen for HIV-1 Env fusion inhibitor project, dose response (AID 652040); assay type: functional, cell-based;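 further: potency for signal decrease marking cytotoxic or nonspecific inhibition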
# [11] = inhibitors of clade B AD8 Env fusion, dose response, cell-based, cherry-pick (AID 652062); assay type: functional;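 further: luciferase signal from cell-cell fusion driven by HIV-1 clade B AD8 Env; potency is for inhibitors of fusion seen as a drop in luminescence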
# [12] = Artemis endonuclease inhibitor potency, dose response, biochemical, fluorescence intensity (AID 720701); assay type: functional;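 further: Artemis endonuclease enzyme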
# INS1 = experiment: beta cell apoptosis inhibitors, cytokine rescue, dose response, luminescence, retest (AID 449756); assay type: functional, cell-based; conditions: Rattus norvegicus;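 further: cell death triggered by IL-1 beta plus TNF-alpha plus IFN-gamma mixture; protective hits raise ATP signal compared with cytokine alone wells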
# [13] = Shn3 3'UTR reporter inhibitors, dose response, cell-based, Clone20 osteoblasts, firefly luciferase, cherry-picked (AID 624132); assay type: functional;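 further: firefly luciferase luminescence from reporter carrying the Shn3 3'UTR in osteoblasts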
# [14] = HepG2 cell cytotoxicity, dose response, cytotoxicity control for Shn3 inhibitor project, CellTiter-Glo, cherry-picked (AID 624134); assay type: functional, cell-based
# [15] = control 3'UTR Renilla luciferase suppression, dose response, counter-screen for Shn3 inhibitor project, cell-based, Clone20-Shn3RL, cherry-picked (AID 624133); assay type: functional
# [16] = reduction of Shn3 3'UTR firefly luciferase signal, dose response, Schnurri-3 inhibitor project, cell-based, Clone20 osteoblasts, cherry-pick, set 2 (AID 720490); assay type: functional;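 further: actives lower the luminescence signal as inhibitors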
# [17] = inhibitors of control Renilla luciferase reporter, dose response, counter-screen for Shn3 3'UTR targeting project, Clone20-Shn3RL cells, dual-Glo, cherry-pick, set 2 (AID 720724); assay type: functional, cell-based; conditions: Dual-Go Shn3RL
# Cytochrome P450 3A4 = Cytochrome P450 3A4 (Homo sapiens, UniProt P08684);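 further: CYP3A4 tested as one member of a cytochrome P450 panel screen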
# [18] = molecular target: Luciferin 4-monooxygenase (Photinus pyralis, UniProt P08659); experiment: firefly luciferase enzyme inhibitors, dose response, biochemical, luminescence (AID 1891)
# [19] = Luminescence Cell-Based Dose Confirmation HTS to Identify Inhibitors of Platelet Dense Granule Release. [Related pubchem assays: 1663 (Primary HTS), 1678 (Summary of Project)]; assay type: functional
# [20] = molecular target: Dual specificity tyrosine-phosphorylation-regulated kinase 1A (Rattus norvegicus, UniProt Q63470); assay type: biochemical, Homo sapiens
# cells [21] = assay type: functional, cell-based
# [22] = molecular target: T2, Trace amine-associated receptor 1 (Homo sapiens, UniProt Q96RJ0); experiment: Fluorescence-based cell-based high throughput dose response assay to identify agonists of the human trace amine associated receptor 1 (TAAR1).; assay type: functional
# T2 sequence (Q96RJ0 whole entry): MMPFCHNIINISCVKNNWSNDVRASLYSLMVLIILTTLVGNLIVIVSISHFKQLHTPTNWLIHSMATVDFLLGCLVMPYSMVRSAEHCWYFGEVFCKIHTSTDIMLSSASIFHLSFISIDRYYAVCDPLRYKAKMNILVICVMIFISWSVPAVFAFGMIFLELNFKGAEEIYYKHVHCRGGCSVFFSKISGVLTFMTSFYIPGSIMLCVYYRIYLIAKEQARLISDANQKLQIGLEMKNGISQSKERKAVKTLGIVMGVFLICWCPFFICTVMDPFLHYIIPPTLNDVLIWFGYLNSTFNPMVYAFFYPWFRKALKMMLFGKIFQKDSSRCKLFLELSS
# [23] = molecular target: T2, Trace amine-associated receptor 1; experiment: Counterscreen for agonists of the human trace amine associated receptor 1 (hTAAR1): Fluorescence-based cell-based high throughput dose response assay to identify hTAAR1 agonist that also desensitize TAAR1 receptor response.; assay type: functional
# cells [24] = assay type: functional, cell-based; remark: listed apart in the source
# [25] = HepG2 cell cytotoxicity, dose response, cytotoxicity control, ATP luminescence, cherry-pick, activator set 2 (AID 1053143); assay type: functional, cell-based
# cells [26] = assay type: functional, cell-based; remark: listed apart in the source
# cells [27] = assay type: functional, cell-based; remark: listed apart in the source
# [28] = HEK293T cell cytotoxicity, dose response, cytotoxicity control for HIV Vif inhibitor project, cherry-picks (AID 652208); assay type: functional, cell-based
# Paired box protein Pax-8 = Paired box protein Pax-8 (Homo sapiens, UniProt Q06710); experiment: inhibitors of PAX8-driven TPO luciferase reporter, dose response, RMG-I cells, cherry-pick (AID 687027); assay type: functional, cell-based;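 further: luciferase reporter driven by Pax8 target thyroperoxidase promoter measured by SteadyGlo luminescence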
# [29] = cytotoxicity in COV362 ovarian cancer cells, dose response, cytotoxicity control for PAX8 inhibitor project, cell-based, plate reader, dry powder, SA12 (AID 743144); assay type: functional
# [30] = IOSE-T80 ovarian epithelial cell cytotoxicity, dose response, cytotoxicity control for PAX8 inhibitor project, plate reader, dry powder samples (AID 743045); assay type: functional, cell-based
# [31] = NIH:OVCAR-3 ovarian cancer cell cytotoxicity, dose response, PAX8 inhibitor project, plate reader, dry powder samples (AID 743044); assay type: functional, cell-based
# [32] = IGROV1 ovarian cancer cell cytotoxicity, dose response, PAX8 inhibitor project, plate reader, dry powder samples (AID 743043); assay type: functional, cell-based; conditions: IGROV-1
# [33] = cytotoxicity in OVCAR4 cells, dose response, cytotoxicity control for PAX8 inhibitor project, cell-based, plate reader, dry powder, SA11 (AID 743150); assay type: functional; conditions: OVCAR-4
# [34] = cytotoxicity in COV434 cells, dose response, cytotoxicity control for PAX8 inhibitor project, cell-based, plate reader, dry powder, SA7 (AID 743145); assay type: functional
# [35] = cytotoxicity in OV-90 ovarian cancer cells, dose response, PAX8 inhibitor project, cell-based, plate reader, dry powder, SA8 (AID 743149); assay type: functional
# [36] = non-specific cell cytotoxicity, dose response, cytotoxicity control for PAX8 inhibitor project, plate reader, dry powder samples (AID 743021); assay type: functional, cell-based
# [37] = cytotoxicity dependent on PAX8, dose response, cell-based, plate reader, dry powder (AID 743049); assay type: functional
# cells [38] = conditions: A549
# HeLa = experiment: HeLa cell cytotoxicity, dose response, cytotoxicity control, ATP luminescence, cherry-pick samples (AID 687004); assay type: functional, cell-based; conditions: Homo sapiens
# HEK293 = experiment: HEK293T cell cytotoxicity, dose response, cytotoxicity control, ATP luminescence, cherry-pick samples (AID 687005); assay type: functional, cell-based; conditions: Homo sapiens;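 further: cells exposed to compound for 48 hours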
# [39] = HEK293 Cytotoxicity Assay Measured in Cell-Based System Using Plate Reader - 7071-01_Inhibitor_Dose_CherryPick_Activity_Set2.; assay type: functional
# Chain of Cytochrome P450 3A4 (P08684 whole entry): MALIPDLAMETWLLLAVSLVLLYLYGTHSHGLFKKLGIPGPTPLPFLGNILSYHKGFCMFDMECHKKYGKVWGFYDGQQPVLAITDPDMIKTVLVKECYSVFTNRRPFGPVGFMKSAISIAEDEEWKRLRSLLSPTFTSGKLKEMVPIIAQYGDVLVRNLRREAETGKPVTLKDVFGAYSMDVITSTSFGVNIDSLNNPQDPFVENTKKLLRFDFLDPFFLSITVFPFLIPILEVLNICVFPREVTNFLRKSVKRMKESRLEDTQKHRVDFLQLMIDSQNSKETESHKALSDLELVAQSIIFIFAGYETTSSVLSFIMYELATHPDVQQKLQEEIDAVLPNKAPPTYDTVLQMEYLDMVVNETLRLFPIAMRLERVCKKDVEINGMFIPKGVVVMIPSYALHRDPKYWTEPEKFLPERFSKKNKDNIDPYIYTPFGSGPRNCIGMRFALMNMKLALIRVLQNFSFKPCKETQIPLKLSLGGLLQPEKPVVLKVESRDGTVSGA
# Chain of Paired box protein Pax-8 (Q06710 whole entry): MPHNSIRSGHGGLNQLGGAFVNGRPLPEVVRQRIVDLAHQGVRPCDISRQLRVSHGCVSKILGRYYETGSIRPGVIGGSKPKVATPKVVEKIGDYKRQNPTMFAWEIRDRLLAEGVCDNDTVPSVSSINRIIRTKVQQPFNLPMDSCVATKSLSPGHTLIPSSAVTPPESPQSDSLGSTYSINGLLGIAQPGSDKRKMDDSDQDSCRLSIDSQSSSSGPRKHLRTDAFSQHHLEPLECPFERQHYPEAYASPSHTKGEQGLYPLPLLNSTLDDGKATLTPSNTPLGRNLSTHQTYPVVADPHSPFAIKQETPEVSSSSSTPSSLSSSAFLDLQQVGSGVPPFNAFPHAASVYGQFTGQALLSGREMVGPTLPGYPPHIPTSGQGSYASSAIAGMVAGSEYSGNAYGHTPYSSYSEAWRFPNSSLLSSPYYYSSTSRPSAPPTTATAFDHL
# Chain of Galanin receptor type 3 (O60755 whole entry): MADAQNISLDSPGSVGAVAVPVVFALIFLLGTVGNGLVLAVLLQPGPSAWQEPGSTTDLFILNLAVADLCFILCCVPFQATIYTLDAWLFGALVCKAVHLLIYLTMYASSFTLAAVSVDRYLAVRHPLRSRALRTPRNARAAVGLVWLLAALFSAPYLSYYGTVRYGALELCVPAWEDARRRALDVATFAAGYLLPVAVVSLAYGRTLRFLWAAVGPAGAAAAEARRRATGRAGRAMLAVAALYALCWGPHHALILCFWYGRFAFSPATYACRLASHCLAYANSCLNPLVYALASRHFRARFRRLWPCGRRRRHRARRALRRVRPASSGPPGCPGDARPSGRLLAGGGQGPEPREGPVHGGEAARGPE
# Chain of Kallikrein-7 (P49862 whole entry): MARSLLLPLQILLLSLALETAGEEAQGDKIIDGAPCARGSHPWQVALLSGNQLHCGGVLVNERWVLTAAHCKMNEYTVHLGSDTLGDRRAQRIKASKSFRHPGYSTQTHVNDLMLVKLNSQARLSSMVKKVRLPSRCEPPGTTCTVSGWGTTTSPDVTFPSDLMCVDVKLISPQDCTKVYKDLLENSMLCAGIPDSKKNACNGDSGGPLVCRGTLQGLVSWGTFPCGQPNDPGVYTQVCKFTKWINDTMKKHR
# Chain of Luciferin 4-monooxygenase (P08659 whole entry): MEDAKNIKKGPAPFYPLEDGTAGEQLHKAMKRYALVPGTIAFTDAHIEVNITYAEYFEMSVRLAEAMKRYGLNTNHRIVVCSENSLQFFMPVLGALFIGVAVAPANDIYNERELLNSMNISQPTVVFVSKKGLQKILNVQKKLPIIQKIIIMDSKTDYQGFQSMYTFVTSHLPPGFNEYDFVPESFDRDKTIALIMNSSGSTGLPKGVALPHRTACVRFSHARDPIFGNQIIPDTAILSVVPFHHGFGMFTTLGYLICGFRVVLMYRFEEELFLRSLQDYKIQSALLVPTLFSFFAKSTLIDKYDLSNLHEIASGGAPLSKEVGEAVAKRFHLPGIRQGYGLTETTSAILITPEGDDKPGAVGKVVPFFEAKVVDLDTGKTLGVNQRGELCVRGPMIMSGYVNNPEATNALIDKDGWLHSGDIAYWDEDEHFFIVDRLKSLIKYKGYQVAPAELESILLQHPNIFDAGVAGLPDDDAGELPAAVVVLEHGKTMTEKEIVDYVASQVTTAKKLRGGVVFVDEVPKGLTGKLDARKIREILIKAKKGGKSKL
smiles,measurement,setting,value
COc1ccc(-c2cc(-c3ccccc3)n3ncnc3n2)cc1,EC50,Kallikrein-7,> 69.5 µM (inactive)
same,EC50,[1],> 7.72 µM (active)
O=C(COC(=O)c1cccc(O)c1)Nc1ccc(Cl)cc1C(=O)c1ccccc1,IC50,[2],17.9 µM (not active)
same,AC50,[3],32.3 µM (active)
same,AC50,[4],> 52 µM (inactive)
same,AC50,[5],> 52 µM (inactive)
Cc1cc(CSc2ccccc2)ccc1NC(=O)c1ccc(CN2CCOCC2)cc1,IC50,Jurkat,> 80 µM (inactive)
same,IC50,[6],> 80 µM (inactive)
same,AC50,[7],2.17 µM (active)
same,IC50,Galanin receptor type 3,0.322 µM (active)
same,EC50,cells [8],> 29.9 µM (inactive)
same,AC50,[9],7.59 µM (active)
same,AC50,[10],1.75 µM (active)
same,AC50,[11],5.87 µM (active)
O=C(Nc1nc2n(n1)C(c1ccccc1)CC(c1ccc(Cl)cc1)N2)c1ccco1 (configuration not stated),IC50,[12],18.7 µM (active)
Cc1ccc(-c2csc(N3CCC(NS(=O)(=O)c4ccc5c(c4)OCCO5)CC3)n2)cc1,AC50,INS1,5.51 µM (active)
same,AC50,[13],2.15 µM (active)
same,AC50,[14],> 70 µM (inactive)
same,AC50,[15],15 µM (active)
same,AC50,[16],3.03 µM (active)
same,AC50,[17],21.6 µM (active)
same,AC50,Cytochrome P450 3A4,inconclusive
Nc1nc(Nc2ccccc2)nc2ccccc12,EC50,[18],1.25 µM (active)
same,EC50,[19],2.06 µM (active)
same,AC50,[20],4.92 µM (active)
same,IC50,cells [21],> 29.9 µM (inactive)
same,EC50,[22],0.16 µM (active)
same,IC50,[23],0.444 µM (active)
same,EC50,cells [24],> 29.9 µM (inactive)
same,AC50,[25],26 µM (active)
COc1ccc(-c2cc(C(F)(F)F)nc(S(=O)(=O)CCCC(=O)Nc3cc(C)on3)n2)cc1OC,EC50,cells [26],> 350 µM (not active)
same,EC50,cells [27],> 350 µM (not active)
same,AC50,[28],13.7 µM (active)
same,AC50,Paired box protein Pax-8,9.94 µM (active)
same,AC50,[29],21.2 µM (active)
same,AC50,[30],29.4 µM (active)
same,AC50,[31],20.7 µM (active)
same,AC50,[32],13.4 µM (active)
same,AC50,[33],27.7 µM (active)
same,AC50,[34],15.2 µM (active)
same,AC50,[35],30.1 µM (active)
same,AC50,[36],23.1 µM (active)
same,AC50,[37],16.2 µM (active)
N#C/C(=C\c1ccco1)C(=O)Nc1cccc2ncccc12,AC50,cells [38],> 52 µM (inactive)
COc1ccccc1C(=O)Nc1ccc2c(c1)C(=O)N(C)C[C@H](OC)[C@@H](C)CN(CC1CC1)[C@@H](C)CO2,AC50,HeLa,> 52 µM (inactive)
same,AC50,HEK293,24.1 µM (active)
same,AC50,[39],24.1 µM (active)
